According to patent publication US9637453B2, “3-spirocyclic-6-hydroxamic acid tetralins as HDAC inhibitors” (Forma Therapeutics, Inc., priority 2015, dated 2017):

Assays:
[1] = target: T1, Full length human recombinant HDAC6 (Homo sapiens, UniProt Q9UBN7); assay: In vitro histone deacetylase assay, enzymatic HDAC6 (electrophoretic mobility shift assay); format: biochemical; conditions: 1 nM HDAC6; 2 μM peptide substrate FAM-RHKK(Ac)—NH2; 25° C.; 12 concentrations; read-out: HDAC6 Activity Range (IC50)
T1 construct: Full length human recombinant HDAC6 and HDAC11 proteins were expressed in baculoviral system
T1 sequence (Q9UBN7 1-1215): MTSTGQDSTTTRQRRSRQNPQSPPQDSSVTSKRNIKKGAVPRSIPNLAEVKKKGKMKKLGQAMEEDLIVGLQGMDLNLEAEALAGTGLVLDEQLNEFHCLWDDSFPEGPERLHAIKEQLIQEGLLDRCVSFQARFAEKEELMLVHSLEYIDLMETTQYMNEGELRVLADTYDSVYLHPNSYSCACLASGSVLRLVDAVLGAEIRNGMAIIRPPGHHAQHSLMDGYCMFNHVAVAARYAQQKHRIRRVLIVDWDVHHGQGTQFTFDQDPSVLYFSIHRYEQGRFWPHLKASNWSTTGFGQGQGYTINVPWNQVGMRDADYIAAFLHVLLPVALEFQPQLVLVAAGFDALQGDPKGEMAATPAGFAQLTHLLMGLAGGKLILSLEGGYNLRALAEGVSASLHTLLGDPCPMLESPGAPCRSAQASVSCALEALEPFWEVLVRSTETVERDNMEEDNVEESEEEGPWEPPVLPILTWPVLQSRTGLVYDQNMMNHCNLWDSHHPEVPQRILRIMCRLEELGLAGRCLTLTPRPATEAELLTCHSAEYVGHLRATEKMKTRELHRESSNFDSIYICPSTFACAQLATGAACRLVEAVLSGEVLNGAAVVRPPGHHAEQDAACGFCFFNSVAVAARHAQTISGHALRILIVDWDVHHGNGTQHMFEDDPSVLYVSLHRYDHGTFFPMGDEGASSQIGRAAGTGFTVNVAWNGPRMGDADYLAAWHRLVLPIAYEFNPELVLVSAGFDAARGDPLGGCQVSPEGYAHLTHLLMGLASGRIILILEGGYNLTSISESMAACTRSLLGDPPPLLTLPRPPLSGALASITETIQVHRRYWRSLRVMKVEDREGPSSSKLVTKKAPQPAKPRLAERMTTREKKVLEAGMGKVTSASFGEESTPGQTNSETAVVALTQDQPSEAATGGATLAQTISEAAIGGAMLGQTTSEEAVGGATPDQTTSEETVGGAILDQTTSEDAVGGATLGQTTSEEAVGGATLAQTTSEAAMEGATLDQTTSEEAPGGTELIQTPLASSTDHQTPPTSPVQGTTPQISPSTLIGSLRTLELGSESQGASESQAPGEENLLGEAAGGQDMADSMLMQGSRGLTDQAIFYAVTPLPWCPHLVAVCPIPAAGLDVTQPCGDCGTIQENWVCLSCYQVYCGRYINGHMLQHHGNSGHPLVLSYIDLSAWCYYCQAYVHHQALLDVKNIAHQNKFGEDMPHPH
Experimental: (§1) The enzymatic HDAC6 and HDAC11 assays were performed using electrophoretic mobility shift assay. Full length human recombinant HDAC6 and HDAC11 proteins were expressed in baculoviral system and purified by affinity chromatography. The enzymatic reactions were assembled in 384 well plates in a total volume of 25 μL in a reaction buffer composing: 100 mM HEPES, pH 7.5, 25 mM KCl, 0.1% bovine serum albumin, 0.01% Triton X-100, 1% DMSO (from compounds) 2 μM of the fluorescently labeled peptide substrate and enzyme. The enzymes were added at a final concentration of 1 nM for HDAC6, and 10 nM for HDAC11. The peptide substrate FAM-RHKK(Ac)—NH2 was used for HDAC6, and FAM-RHKK(tri-fluor-Ac)—NH2 for HDAC11. The compounds were tested at 12 concentrations spaced by 3× dilution intervals. Negative control samples (0%-inhibition in the absence of inhibitor) and positive control samples (100%-inhibition) were assembled in replicates of four in each assay plate. The reactions were incubated at 25° C. and quenched by the addition of 45 μL of termination buffer (100 mM HEPES, pH 7.5, 0.01% Triton X-100, 0.05% SDS).
(§2) The terminated assay plates were analyzed on LabChip® 3000 microfluidic electrophoresis instrument (Perkin Elmer/Caliper Life Sciences). The fluorescence intensity of the electrophoretically separated de-acetylated product and substrate peptide was measured. Activity in each sample was determined as the product to sum ratio (PSR): P/(S+P), where P is the peak height of the product peptide and S is the peak height of the substrate peptide. Percent inhibition (Pinh) is determined using following equation:
(§3) Pinh=(PSR0%−PSRinh)/(PSR0%−PSR100%)*100, where PSRinh is the product sum ratio in the presence of inhibitor, PSR0% is the average product sum ration in the absence of inhibitor and PSR100% is the average product sum ratio in 100%-inhibition control samples. The IC50 values of inhibitors were determined by fitting the %-inhibition curves with 4 parameter dose-response model using XLfit 4 software.
(§4) As set forth in Table-26 and Table-27, below, IC5o values are defined as follows: IC50≦0.1 μM (+++); IC50>0.1 μM and ≦0.5 μM (++); IC50>0.5 μM (+).

[2] = target: T2, Full length human recombinant HDAC11 (Homo sapiens, UniProt Q96DB2); assay: In vitro histone deacetylase assay, enzymatic HDAC11 (electrophoretic mobility shift assay); format: biochemical; conditions: 10 nM HDAC11; 2 μM peptide substrate FAM-RHKK(tri-fluor-Ac)—NH2; 25° C.; 12 concentrations; read-out: HDAC11 Activity Range (IC50)
T2 construct: Full length human recombinant HDAC6 and HDAC11 proteins were expressed in baculoviral system
T2 sequence (Q96DB2 1-347): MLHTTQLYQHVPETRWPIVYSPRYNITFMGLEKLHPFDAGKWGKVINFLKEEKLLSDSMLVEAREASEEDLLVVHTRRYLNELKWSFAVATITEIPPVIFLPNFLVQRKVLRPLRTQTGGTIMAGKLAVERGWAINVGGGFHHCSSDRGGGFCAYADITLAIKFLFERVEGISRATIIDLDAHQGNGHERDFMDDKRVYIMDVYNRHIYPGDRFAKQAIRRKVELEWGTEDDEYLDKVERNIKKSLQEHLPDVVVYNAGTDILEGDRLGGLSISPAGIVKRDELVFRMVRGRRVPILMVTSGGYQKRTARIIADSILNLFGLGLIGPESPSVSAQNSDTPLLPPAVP
Experimental: as §1, §2, §3, §4

| SMILES | IC50 [1] | IC50 [2] |
| --- | --- | --- |
| COc1ccc(C(=O)N2CCC3(CCc4ccc(C(=O)NO)cc4C3)C2)cc1 (centres unmarked) [Compound I-1, N-hydroxy-1′-(4-methoxybenzoyl)-3,4-dihydro-1H-spiro[naphthalene-2,3′-pyrrolidine]-7-carboxamide] | ≤ 100 nM | > 500 nM |
| COc1ccc(S(=O)(=O)N2CCC3(CCc4ccc(C(=O)NO)cc4C3)C2)cc1 (centres unmarked) [Compound I-2, N-hydroxy-1′-((4-methoxyphenyl)sulfonyl)-3,4-dihydro-1H-spiro[naphthalene-2,3′-pyrrolidine]-7-carboxamide] | ≤ 100 nM | > 500 nM |
| COc1ccc(CN2CCC3(CCc4ccc(C(=O)NO)cc4C3)C2)cc1 (centres unmarked) [Compound I-3, N-hydroxy-1′-(4-methoxybenzyl)-3,4-dihydro-1H-spiro[naphthalene-2,3′-pyrrolidine]-7-carboxamide] | 100 to 500 nM | > 500 nM |
| O=C(NO)c1ccc2c(c1)CC1(CC2)CCN(C(=O)C2CCCCC2)C1 (centres unmarked) [Compound I-4, 1′-(cyclohexanecarbonyl)-N-hydroxy-3,4-dihydro-1H-spiro[naphthalene-2,3′-pyrrolidine]-7-carboxamide] | ≤ 100 nM | > 500 nM |
| O=C(NO)c1ccc2c(c1)CC1(CC2)CCN(C2CCCCC2)C1 (centres unmarked) [Compound I-5, 1′-cyclohexyl-N-hydroxy-3,4-dihydro-1H-spiro[naphthalene-2,3′-pyrrolidine]-7-carboxamide] | ≤ 100 nM | > 500 nM |
| O=C(NO)c1ccc2c(c1)CC1(CC2)CCN(C(=O)Nc2ccccc2)C1 (centres unmarked) [Compound I-6, N7-hydroxy-N1′-phenyl-3,4-dihydro-1H-spiro[naphthalene-2,3′-pyrrolidine]-1′,7-dicarboxamide] | ≤ 100 nM | 100 to 500 nM |
| O=C(NO)c1ccc2c(c1)CC1(CC2)CCN(S(=O)(=O)C2CCCCC2)C1 (centres unmarked) [Compound I-7, 1′-(cyclohexylsulfonyl)-N-hydroxy-3,4-dihydro-1H-spiro[naphthalene-2,3′-pyrrolidine]-7-carboxamide] | ≤ 100 nM | > 500 nM |
| O=C(NO)c1ccc2c(c1)CC1(CCNC1)CC2 (centres unmarked) [Compound I-8, N-hydroxy-3,4-dihydro-1H-spiro[naphthalene-2,3′-pyrrolidine]-7-carboxamide] | 100 to 500 nM | > 500 nM |
| CN1CCC2(CCc3ccc(C(=O)NO)cc3C2)C1 (centres unmarked) [Compound I-9, N-hydroxy-1′-methyl-3,4-dihydro-1H-spiro[naphthalene-2,3′-pyrrolidine]-7-carboxamide] | 100 to 500 nM | > 500 nM |
| O=CN1CCC2(CCc3ccc(C(=O)NO)cc3C2)C1 (centres unmarked) [Compound I-10, 1′-formyl-N-hydroxy-3,4-dihydro-1H-spiro[naphthalene-2,3′-pyrrolidine]-7-carboxamide] | ≤ 100 nM | > 500 nM |
| CC(C)N1CCC2(CCc3ccc(C(=O)NO)cc3C2)C1 (centres unmarked) [Compound I-11, N-hydroxy-1′-isopropyl-3,4-dihydro-1H-spiro[naphthalene-2,3′-pyrrolidine]-7-carboxamide] | 100 to 500 nM | > 500 nM |

The next lines start with the values.

| IC50 [1] | IC50 [2] | SMILES |
| --- | --- | --- |
| ≤ 100 nM | > 500 nM | CC(=O)N1CCC2(CCc3ccc(C(=O)NO)cc3C2)C1 (centres unmarked) [Compound I-12, 1′-acetyl-N-hydroxy-3,4-dihydro-1H-spiro[naphthalene-2,3′-pyrrolidine]-7-carboxamide] |
| ≤ 100 nM | > 500 nM | CS(=O)(=O)N1CCC2(CCc3ccc(C(=O)NO)cc3C2)C1 (centres unmarked) [Compound I-13, N-hydroxy-1′-(methylsulfonyl)-3,4-dihydro-1H-spiro[naphthalene-2,3′-pyrrolidine]-7-carboxamide] |
| ≤ 100 nM | > 500 nM | COc1cccc(CN2CCC3(CCc4ccc(C(=O)NO)cc4C3)C2)c1 (centres unmarked) [Compound I-14, N-hydroxy-1′-(3-methoxybenzyl)-3,4-dihydro-1H-spiro[naphthalene-2,3′-pyrrolidine]-7-carboxamide] |
| ≤ 100 nM | > 500 nM | COc1ccccc1CN1CCC2(CCc3ccc(C(=O)NO)cc3C2)C1 (centres unmarked) [Compound I-15, N-hydroxy-1′-(2-methoxybenzyl)-3,4-dihydro-1H-spiro[naphthalene-2,3′-pyrrolidine]-7-carboxamide] |
| ≤ 100 nM | > 500 nM | O=C(NO)c1ccc2c(c1)C[C@@]1(CC2)CCN(c2ccccc2)C1 [Compound I-16, (S)—N-hydroxy-1′-phenyl-3,4-dihydro-1H-spiro[naphthalene-2,3′-pyrrolidine]-7-carboxamide] |
| ≤ 100 nM | > 500 nM | O=C(NO)c1ccc2c(c1)C[C@]1(CC2)CCN(c2ccccc2)C1 [Compound I-17, (R)—N-hydroxy-1′-phenyl-3,4-dihydro-1H-spiro[naphthalene-2,3′-pyrrolidine]-7-carboxamide] |
| ≤ 100 nM | – | O=C(NO)c1ccc2c(c1)C[C@]1(CC2)CC(=O)N(C2CCC2)C1 [Compound I-150, (R)-1′-cyclobutyl-N-hydroxy-5′-oxo-3,4-dihydro-1H-spiro[naphthalene-2,3′-pyrrolidine]-7-carboxamide] |
| ≤ 100 nM | – | O=C(NO)c1ccc2c(c1)C[C@@]1(CC2)CC(=O)N(C2CCC2)C1 [Compound I-151, (S)-1′-cyclobutyl-N-hydroxy-5′-oxo-3,4-dihydro-1H-spiro[naphthalene-2,3′-pyrrolidine]-7-carboxamide] |
| ≤ 100 nM | – | O=C(NO)c1ccc2c(c1)C[C@]1(CC2)CC(=O)N(C2CCCC2)C1 [Compound I-152, (R)-1′-cyclopentyl-N-hydroxy-5′-oxo-3,4-dihydro-1H-spiro[naphthalene-2,3′-pyrrolidine]-7-carboxamide] |
| ≤ 100 nM | – | O=C(NO)c1ccc2c(c1)C[C@@]1(CC2)CC(=O)N(C2CCCC2)C1 [Compound I-153, (S)-1′-cyclopentyl-N-hydroxy-5′-oxo-3,4-dihydro-1H-spiro[naphthalene-2,3′-pyrrolidine]-7-carboxamide] |
